Patent US20250073165A1, “OLANZAPINE, COMPOSITIONS THEREOF AND METHODS OF USE THEREOF” (Teva Pharmaceuticals International GmbH, priority 2022, published 2025)

Key:
[1] = Flow function by FT4 Powder Rheometer, shear test 9 kPa; format: physicochemical; conditions: 9 kPa shear test, 1 ml cell
Experimental: The flow function (FF) was determined by using FT4 Powder Rheometer, Freeman FT4 instrument, and standard Freeman shear test −9 kPa (using small cell 1 ml), according to the procedure below: • Compact to 9 kPa for 60 s • Pre shear hold 7 kPa for 16 s • Shear test at 7 kPa (Shear at 18°/min for 10°, auto detected peak torque yes) • Pre shear hold 6 kPa for 16 s • Shear test at 6 kPa (Shear at 18°/min for 10°, auto detected peak torque yes) • Pre shear hold 5 kPa for 16 s • Shear test at 5 kPa (Shear at 18°/min for 10°, auto detected peak torque yes) • Pre shear hold 4 kPa for 16 s • Shear test at 4 kPa (Shear at 18°/min for 10°, auto detected peak torque yes) • Pre shear hold 3 kPa for 16 s • Shear test at 3 kPa (Shear at 18°/min for 10°, auto detected peak torque yes)

[2] = Bulk/tapped density, Ph. Eur. 2.9.34 Method 1, ERWEKA SVM 122; format: physicochemical; conditions: Table 1
Experimental: Bulk density/tapped density were determined by European Pharmacopoeia 2.9.34. Method 1 (https://www.drugfuture.com/Pharmacopoeia/EP7/DATA/20934E.PDF; PDF downloaded Nov. 14, 2021).
The bulk and tapped densities were determined using the Tapped Density Tester SVM 122 from ERWEKA, equipped with a 100 mL glass cylinder. Approximately 30 g of the powder was carefully poured into the 100 mL measuring cylinder with a funnel. Bulk density was calculated by dividing the amount of powder (in gram) by the measured volume (mL). The tapped density was then determined as follows:
If the difference between V500 and V1250 was bigger than 2 mL, taps were repeated: i.e. tapped another 1250× and repeated until difference was below 2 mL. • Bulk density=sample weight/volume before tapping. • Tapped density=weight/volume after tapping. • Calculation: […]

[3] = PSD of bulk API compared to PSD of API in vial after dry heat sterilization; format: physicochemical; conditions: for D(3,2) / D(90): Table 3, bulk API or API in vial after dry heat sterilization 150-160° C., two hours, per sample name
Experimental: (§1) For the purposes herein, particle size distribution (PSD) is determined as the percent volume, i.e. D(90) and D(3,2) and was measured by laser diffraction using a Malvern Mastersizer 2000 equipped with a Hydro 2000 S dispersion unit.
(§2) The measurements were performed in saturated water dispersion medium (refractive index=[…] (general purpose)). The water was saturated with olanzapine to prevent dissolution of the sample while measuring. Dispersion medium was prepared by adding about 3 gm olanzapine to 1 liter water, sonicating in an ultrasound bath for 30 min and filtering (0.22-0.45 μm). The samples were added as concentrated suspension under stirring until an obscuration rate of 10-20% was reached. The results were values arising from ten measurement cycles with a recirculation time (after sonification) of 30 sec.
(§3) Sample preparation: Samples were prepared as concentrated suspensions. About 50-100 mg of the olanzapine sample was added with a spatula to a small sized glass beaker and several drops of saturated water dispersion medium was added. A paste was obtained by mild mixing, and an additional quantity (1 ml) of saturated water dispersion medium was added in order to obtain a concentrated homogeneous suspension.
Closed and crimped vials filled with API were terminally sterilized at 150-160° C. using dry heat for two hours in dry heat oven SP-470 by Kambič (Slovenia). Additional methods of terminal sterilization include radiation including for example, gamma radiation, X-ray, electron beam and the like with similar results. Alternatively, the API may be prepared aseptically
The manufacturing process for the final drug product includes a terminal sterilization step, and specifically the quality of the bulk API should not be affected by sterilization. Therefore, after the dry heat sterilization, samples of API in vials filled with two batches (with low PSD) were analyzed for PSD and compared to starting API material.

[4] = Particle size distribution (PSD) by laser diffraction, Malvern Mastersizer 2000; format: physicochemical
Experimental: as §1, §2, §3

[5] = background statement; cited from earlier work
[6] = Table 4, listed as Olanzapine M1-010
[7] = Table 4, listed as Olanzapine M6-020
[8] = Table 4, listed as Olanzapine M7-121
[9] = Table 4, listed as Olanzapine S1-220
[10] = Table 4, listed as Olanzapine S1-920
[11] = Table 4, listed as Olanzapine S2-920
[12] = Table 4, listed as Olanzapine S3-020
[13] = Table 4, listed as Olanzapine S3-221

Structure (SMILES)	Flow function [1]	TD (tapped density) [2] [g/mL]	D(3,2) [3] [μm]	D(90) [3] [μm]	D(3,2) ([4]; Table 1, bulk API batch) [μm]	D(90) ([4]; Table 1, bulk API batch) [μm]	other results
Cc1cc2c(s1)Nc1ccccc1N=C2N1CCN(C)CC1 [Batch M1-010, 2-methyl-4-(4-methyl-1-piperazinyl)-10H-thieno[2,3-b][1,5]benzodiazepine]	1.4	0.37	4.7	14	4.2	13	D(90) [4, 6]: 14 μm; D(100) [4, 6]: 42 μm
Cc1cc2c(s1)Nc1ccccc1N=C2N1CCN(C)CC1 [Batch M2-121, 2-methyl-4-(4-methyl-1-piperazinyl)-10H-thieno[2,3-b][1,5]benzodiazepine]	1.5	0.39	7.5	40	6.4	30	
Cc1cc2c(s1)Nc1ccccc1N=C2N1CCN(C)CC1 [Batch M6-020, 2-methyl-4-(4-methyl-1-piperazinyl)-10H-thieno[2,3-b][1,5]benzodiazepine]	2.0	0.41	6.5	24	6.6	24	D(90) [4, 7]: 24 μm; D(100) [4, 7]: 205 μm
Cc1cc2c(s1)Nc1ccccc1N=C2N1CCN(C)CC1 [Batch M7-121, 2-methyl-4-(4-methyl-1-piperazinyl)-10H-thieno[2,3-b][1,5]benzodiazepine]	2.1	0.50			8.3	42	D(90) [4, 8]: 40 μm; D(100) [4, 8]: 205 μm
Cc1cc2c(s1)Nc1ccccc1N=C2N1CCN(C)CC1 [Batch S1-220, 2-methyl-4-(4-methyl-1-piperazinyl)-10H-thieno[2,3-b][1,5]benzodiazepine]	1.5	0.39	5.8	29	6.1	26	D(90) [4, 9]: 29 μm; D(100) [4, 9]: 142 μm
Cc1cc2c(s1)Nc1ccccc1N=C2N1CCN(C)CC1 [Batch S1-920, 2-methyl-4-(4-methyl-1-piperazinyl)-10H-thieno[2,3-b][1,5]benzodiazepine]	1.2	0.29	3.9	11	4.1	11	D(90) [4, 10]: 11 μm; D(100) [4, 10]: 21 μm
Cc1cc2c(s1)Nc1ccccc1N=C2N1CCN(C)CC1 [Batch S2-920, 2-methyl-4-(4-methyl-1-piperazinyl)-10H-thieno[2,3-b][1,5]benzodiazepine]	2.0	0.45			7.6	38	D(90) [4, 11]: 38 μm; D(100) [4, 11]: 136 μm
Cc1cc2c(s1)Nc1ccccc1N=C2N1CCN(C)CC1 [Batch S3-020, 2-methyl-4-(4-methyl-1-piperazinyl)-10H-thieno[2,3-b][1,5]benzodiazepine]	1.3	0.28	5.2	16	5.4	17	PSD curves before and after sterilization ([3]; FIG. 4B): highly similar; D(90) [4, 12]: 16 μm; D(100) [4, 12]: 90 μm
Cc1cc2c(s1)Nc1ccccc1N=C2N1CCN(C)CC1 [Batch S3-221, 2-methyl-4-(4-methyl-1-piperazinyl)-10H-thieno[2,3-b][1,5]benzodiazepine]	1.8	0.40			6.4	26	D(90) [4, 13]: 24 μm; D(100) [4, 13]: 61 μm
Cc1cc2c(s1)Nc1ccccc1N=C2N1CCN(C)CC1 [Olanzapine S2-121, 2-methyl-4-(4-methyl-1-piperazinyl)-10H-thieno[2,3-b][1,5]benzodiazepine]							D(90) ([4]; Table 4): 27 μm; D(100) ([4]; Table 4): 196 μm
Cc1cc2c(s1)Nc1ccccc1N=C2N1CCN(C)CC1 [Olanzapine S4-221, 2-methyl-4-(4-methyl-1-piperazinyl)-10H-thieno[2,3-b][1,5]benzodiazepine]							D(90) ([4]; Table 4): 26 μm; D(100) ([4]; Table 4): 110 μm
Cc1cc2c(s1)Nc1ccccc1N=C2N1CCN(C)CC1 [Olanzapine, 2-methyl-4-(4-methyl-1-piperazinyl)-10H-thieno[2,3-b][1,5]benzodiazepine]							Water solubility [5]: poor
